Series [1] in a line: Oral absorption (Cmax) in rats. As to conditions: sodium salt compared to the free compound. The format is in vivo.
The nature of series [2]: Oral absorption (Cmax) in dogs. The format is in vivo. To be noted: sodium salt compared to the free compound.
A further series deals with db/db mice. To be noted: female db/db mice; Dose 1 mg/kg, drug mixed with diet; difference between db/db control group and +/+ mice taken as 100%.

Consider 17 compounds from patent US6573274B1, “Sulfonamide compounds and uses thereof as medicines” (Fujisawa Pharmaceutical Co. Ltd., priority 1998, dated 2003).

Description for db/db mice: Blood Sugar Level Depressing Activity in db/db Mice
Female C57BL/KsJ-dbm db+/db+, C57BL/KsJ-dbm +m/+m (Jackson Laboratory) mice (5 weeks old) were purchased and subjected to the test after 2-3 weeks of acclimating period.
The test drug was mixed with a powder diet (CE-2, Clea Japan, Inc.) in a mortar. In the case of administration in 100 mg/kg, the mixing proportion was 0.1%, in the case of 30 mg/kg, the proportion was 0.03% and in the case of 10 mg/kg, the proportion was 0.01%. The diet was changed twice a week for each group. The amount of the diet given and the amount left were recorded and the diet intake was calculated by determining the difference.
The female db/db mice were grouped according to body weight, blood sugar level and triglyceride concentration in plasma. […] The blood sugar level, triglyceride concentration in plasma and insulin concentration in plasma were measured at day 0 and day 14, and blood sugar level and triglyceride concentration in blood were measured at day 7.
Blood sugar level was measured using 10-15 μl of plasma and in accordance with glucose oxidase method (glucose CII-Test Wako, Wako Pure Chemicals Co., Ltd.). The triglyceride concentration in plasma was measured using 10-15 μl of plasma and in accordance with GPO-p-chlorophenol method (triglyceride G-Test Wako) or GPO-DAOS method (triglyceride E-Test Wako). […]

With `CCCCCS(=O)(=O)NC(=O)c1ccc2nc(C)n(Cc3ccc(OCC4CCCCC4)cc3Cl)c2n1.[Na]` [Example 85, 3-[2-chloro-4-(cyclohexylmethyloxy)benzyl]-2-methyl-5-(1-pentanesulfonylcarbamoyl)-3H-imidazo[4,5-b]pyridine sodium salt], the melting point was > 250 °C. The “Cmax, times greater than the free (non-salt) compound” value in series [1] (rats, oral) fell in the range of 2 to 3 times. Also, in series [1] (demonstrated by Cmax in rats and dogs), the “oral absorption as compared to the free (non-salt) compound” value is “markedly improved”. Also, in series [2], the “Cmax, times greater than the free (non-salt) compound” value is on record as “about 16 times”. As for `CCCOc1ccc(Cn2c(C)nc3c(C)cc(C(=O)NS(=O)(=O)c4ccc(C)cc4)nc32)c(Cl)c1` [Compound A, 3-(2-Chloro-4-(1-propoxy)benzyl)-2,7-dimethyl-5-[(4-methylbenzene)sulfonylcarbamoyl]-3H-imidazo[4,5-b]pyridine], the “Blood sugar decrease (%)” value in the series with db/db mice was determined as 97%.

As for `CCCCS(=O)(=O)NC(=O)c1ccc2nc(C)n(Cc3ccc(NC(=O)OCC)cc3Cl)c2n1` [Example 111, 3-(4-ethoxycarbonylamino-2-chlorobenzyl)-2-methyl-5-(1-butanesulfonylcarbamoyl)-3H-imidazo[4,5-b]pyridine], the melting point lay within 236 to 237 °C.

On to `CCCCCS(=O)(=O)NC(=O)c1ccc2nc(C)n(Cc3ccc(-c4ccccc4)nc3Cl)c2n1` [Example 127, 3-[(2-chloro-6-phenylpyridin-3-yl)methyl]-2-methyl-5-(1-pentanesulfonylcarbamoyl)-3H-imidazo[4,5-b]pyridine], for which the melting point lay in the range of 224 to 225 °C.

Compound `CCCCS(=O)(=O)NC(=O)c1ccc2nc(C)n(Cc3ccc(OCC4CCCC4)cc3Cl)c2n1` [Example 28, 5-(1-butanesulfonylcarbamoyl)-3-(2-chloro-4-((cyclopentylmethyl)oxy)benzyl)-2-methyl-3H-imidazo[4,5-b]pyridine] displayed a melting point of 180 to 181 °C.

Turning to `CCCCCOc1ccc(Cn2c(C)nc3ccc(C(=O)NS(=O)(=O)NCCCC)nc32)c(Cl)c1` [Example 26, 5-((1-butylaminosulfonyl)carbamoyl)-3-(2-chloro-4-(1-pentyloxy)benzyl)-2-methyl-3H-imidazo[4,5-b]pyridine], the melting point was 136 to 138 °C. Same read-out and setting: next, `CCCCCOc1ccc(Cn2c(C)nc3ccc(C(=O)NS(=O)(=O)c4ccc(Cl)s4)nc32)c(Cl)c1` [Example 24, 3-[2-chloro-4-(1-pentyloxy)benzyl]-2-methyl-5-[(5-chlorothiophen-2-yl)sulfonylcarbamoyl]-3H-imidazo[4,5-b]pyridine]: 154 to 155 °C. Compound `CCCCCS(=O)(=O)NC(=O)c1ccc2nc(C)n(Cc3ccc(OCC4CCCC4)cc3Cl)c2n1` [Example 27, 3-(2-chloro-4-((cyclopentylmethyl)oxy)benzyl)-2-methyl-5-(1-pentanesulfonylcarbamoyl)-3H-imidazo[4,5-b]pyridine] showed a melting point of 160 to 161 °C. In the case of `CCCCCOc1ccc(Cn2c(C)nc3c(C)cc(C(=O)NS(=O)(=O)CCCCC)nc32)c(Cl)c1` [Example 38, 3-[2-chloro-4-(1-pentyloxy)benzyl]-2,7-dimethyl-5-(1-pentanesulfonylcarbamoyl)-3H-imidazo[4,5-b]pyridine], the melting point was 149 to 150 °C.

With `CCCCCS(=O)(=O)NC(=O)c1ccc2nc(C)n(Cc3ccc(OCCC)cc3Cl)c2n1` [Example 12, 3-(2-chloro-4-(1-propoxy)benzyl)-2-methyl-5-(1-pentanesulfonylcarbamoyl)-3H-imidazo[4,5-b]pyridine], the melting point lay within 131 to 134 °C.

`CCCCCS(=O)(=O)NC(=O)c1ccc2nc(C)n(Cc3ccc(N(C)C(=O)OC(C)(C)C)cc3Cl)c2n1` [Example 41, 3-(4-(N-(tert-butoxycarbonyl)-N-methylamino)-2-chlorobenzyl)-2-methyl-5-(1-pentanesulfonylcarbamoyl)-3H-imidazo[4,5-b]pyridine] showed a melting point of 160 to 161 °C. `CCCCCS(=O)(=O)NC(=O)c1ccc2nc(C)n(Cc3ccc(N(C)CC)cc3Cl)c2n1` [Example 43, 3-(2-chloro-4-(ethylmethylamino)benzyl)-2-methyl-5-(1-pentanesulfonylcarbamoyl)-3H-imidazo[4,5-b]pyridine]: the melting point is 148 to 149 °C. As for `CCCCCS(=O)(=O)NC(=O)c1ccc2nc(C)n(Cc3ccc(N(C)CCC)cc3Cl)c2n1` [Example 44, 3-(2-chloro-4-(methyl-(1-propyl)amino)benzyl)-2-methyl-5-(1-pentanesulfonylcarbamoyl)-3H-imidazo[4,5-b]pyridine], the melting point was in the range of 129 to 130 °C. Compound `CCCCCS(=O)(=O)NC(=O)c1ccc2nc(C)n(Cc3ccc(NC)cc3Cl)c2n1` [Example 42, 3-(2-chloro-4-(methylamino)benzyl)-2-methyl-5-(1-pentanesulfonylcarbamoyl)-3H-imidazo[4,5-b]pyridine] had a melting point of 185 to 186 °C. Still for that read-out and setting: to `CCCCCOc1ccc(Cn2c(C)nc3ccc(C(=O)NS(=O)(=O)CCCC)nc32)c(Cl)c1` [Example 21, 5-(1-butanesulfonylcarbamoyl)-3-(2-chloro-4-(1-pentyloxy)benzyl)-2-methyl-3H-imidazo[4,5-b]pyridine] belongs 145 to 146 °C; to `CCCCS(=O)(=O)NC(=O)c1ccc2nc(C)n(Cc3ccc(NC(=O)OC(C)(C)C)cc3Cl)c2n1` [Example 109, 5-(1-butanesulfonylcarbamoyl)-3-(4-(N-t-butoxycarbonylamino)-2-chlorobenzyl)-2-methyl-3H-imidazo[4,5-b]pyridine], 229 to 230 °C; to `CCCCS(=O)(=O)NC(=O)c1ccc2nc(C)n(Cc3ccc(OCC)cc3Cl)c2n1` [Example 9, 5-(1-butanesulfonylcarbamoyl)-3-(2-chloro-4-ethoxybenzyl)-2-methyl-3H-imidazo[4,5-b]pyridine], 151 to 152 °C.

One may read the melting point as the temperature, or range, at which the solid turns liquid.
